In this experiment the target is T1, hTLR7 (Homo sapiens, UniProt Q9NYK1).
T1 sequence (Q9NYK1 27-1049): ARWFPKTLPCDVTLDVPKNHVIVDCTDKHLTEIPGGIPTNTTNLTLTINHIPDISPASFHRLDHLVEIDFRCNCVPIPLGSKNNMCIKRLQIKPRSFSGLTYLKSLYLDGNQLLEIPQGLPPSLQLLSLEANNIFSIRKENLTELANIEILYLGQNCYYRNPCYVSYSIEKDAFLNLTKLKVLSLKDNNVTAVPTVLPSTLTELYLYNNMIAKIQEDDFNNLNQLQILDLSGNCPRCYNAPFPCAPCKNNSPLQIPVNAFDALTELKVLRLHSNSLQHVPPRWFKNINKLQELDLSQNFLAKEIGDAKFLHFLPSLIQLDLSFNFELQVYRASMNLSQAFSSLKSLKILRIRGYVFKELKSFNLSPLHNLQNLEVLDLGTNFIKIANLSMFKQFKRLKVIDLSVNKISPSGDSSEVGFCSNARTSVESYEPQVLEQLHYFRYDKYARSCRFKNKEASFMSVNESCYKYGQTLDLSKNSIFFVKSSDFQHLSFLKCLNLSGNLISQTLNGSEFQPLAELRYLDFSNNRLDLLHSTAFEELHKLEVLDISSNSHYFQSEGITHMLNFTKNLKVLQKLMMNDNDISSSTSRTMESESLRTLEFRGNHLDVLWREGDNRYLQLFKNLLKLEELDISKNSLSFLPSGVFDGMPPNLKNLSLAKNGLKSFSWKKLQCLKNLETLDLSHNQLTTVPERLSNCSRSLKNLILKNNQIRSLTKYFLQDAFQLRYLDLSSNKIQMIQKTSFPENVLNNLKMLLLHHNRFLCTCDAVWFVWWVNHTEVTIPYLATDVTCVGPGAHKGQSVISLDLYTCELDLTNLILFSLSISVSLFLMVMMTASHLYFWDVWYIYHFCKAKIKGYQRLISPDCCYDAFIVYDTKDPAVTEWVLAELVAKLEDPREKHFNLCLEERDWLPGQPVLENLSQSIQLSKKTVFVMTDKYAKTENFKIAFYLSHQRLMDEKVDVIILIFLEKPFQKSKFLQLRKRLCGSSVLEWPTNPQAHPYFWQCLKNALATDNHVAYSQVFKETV
Nature of the experiment: HEK293-Blue-hTLR-7 cells assay (SEAP reporter, R848 stimulation). The format is cell-based. Details: host or cells: HEK293 (HEK-Blue). As to conditions: HEK293-Blue-hTLR7 cells, R848, 20 hrs; read-out: HEK/hTLR7 IC50. The text has this: A stable HEK293-Blue-hTLR-7 cell line was purchased from InvivoGen (Cat.#: hkb-htlr7, San Diego, California, USA). These cells were originally designed for studying the stimulation of human TLR7 by monitoring the activation of NF-κB. A SEAP (secreted embryonic alkaline phosphatase) reporter gene was placed under the control of the IFN-β minimal promoter fused to five NF-κB and AP-1-binding sites. The SEAP was induced by activating NF-xB and AP-1 via stimulating HEK-Blue hTT,R7 cells with TLR7 ligands. Therefore, the reporter expression was declined by TLR7 antagonist under the stimulation of a ligand, such as R848 (Resiquimod), for incubation of 20 hrs. The cell culture supernatant SEAP reporter activity was determined using QUANTI-Blue™ kit (Cat.#: rep-qb1, Invivogen, San Diego, Ca, USA) at a wavelength of 640 nm, a detection medium that turns purple or blue in the presence of alkaline phosphatase.
HEK293-Blue-hTLR7 cells were incubated at a density of 250,000-450,000 cells/mL in a volume of 170 µL in a 96-well plate in Dulbecco's Modified Eagle's medium (DMEM) containing 4.5 g/L glucose, 50 U/mL penicillin, […], […], 2 mM L-glutamine, 10% (v/v) heat-inactivated fetal bovine serum with addition of 20 µL test compound in a serial dilution in the presence of final DMSO at 1% and 10 µL of 20uM R848 in above DMEM, perform incubation under 37 °C in a CO2 incubator for 20 hrs. Then 20 µL of the supernatant from each well was incubated with 180 µL Quanti-blue substrate solution at 37 °C for 2 hrs and the absorbance was read at 620-655 nm using a spectrophotometer. The signaling pathway that TLR7 activation leads to downstream NF-xB activation has been widely accepted, and therefore similar reporter assay was modified for evaluating TLR7 antagonist.

Bounds are passed on as bounds.

We go through 23 compounds from EP3807270B1, “NOVEL HETEROARYL HETEROCYCLYL COMPOUNDS FOR THE TREATMENT OF AUTOIMMUNE DISEASE” (F. Hoffmann-La Roche AG, priority 2018, dated 2019).

As to `C[C@@H]1CN(c2ccc(C#N)c3ncccc23)C[C@H](CN2CCN(c3cc4c(cn3)[C@H](C)NCC4)CC2)O1` (single isomer, unassigned) [Example 72], the IC50 is 0.013 µM.

In the case of `C[C@@H]1CN(c2ccc(C#N)c3ncccc23)C[C@H](CN2CCN(c3cnc4c(c3)CN[C@@H]4C)CC2)O1` (single isomer, unassigned) [Example 68], the IC50 came out at 0.013 µM.

As for `C[C@@H]1Cc2cc(N3CCN(C[C@H]4CN(c5ccc(C#N)c6nccnc56)C[C@@H](C)O4)CC3)ncc2CN1` (single isomer, unassigned) [Example 83], the IC50 was found to be 0.006 µM.

On to `C[C@@H]1CN(c2ccc(C#N)c3nccnc23)C[C@H](CN2CCN(c3cc4c(cn3)CCNC4)CC2)O1` [Example 80, 8-[(2R,6S)-2-methyl-6-[[4-(5,6,7,8-tetrahydro-2,6-naphthyridin-3-yl)piperazin-1-yl]methyl]morpholin-4-yl]quinoxaline-5-carbonitrile], for which the IC50 amounted to 0.008 µM.

`C[C@@H]1CN(c2ccc(C#N)c3ncsc23)C[C@H](CN2CCN(c3cnc4c(c3)CNC4)CC2)O1` [Example 8, 7-[(2S,6R)-2-[[4-(6,7-dihydro-5H-pyrrolo[3,4-b]pyridin-3-yl)piperazin-1-yl]methyl]-6-methyl-morpholin-4-yl]-1,3-benzothiazole-4-carbonitrile]: the IC50 was found to be 0.01 µM.

`C[C@@H]1CN(c2ccc(C#N)c3ncccc23)C[C@H](CN2CC3(C2)CN(c2cnc4c(c2)CNCC4)CCO3)O1` [Example 47, 5-[(2R,6S)-2-methyl-6-[[8-(5,6,7,8-tetrahydro-1,6-naphthyridin-3-yl)-5-oxa-2,8-diazaspiro[3.5]nonan-2-yl]methyl]morpholin-4-yl]quinoline-8-carbonitrile]: the IC50 turned out to be 0.012 µM.

With `C[C@@H]1CN(c2ccc(C#N)c3ncccc23)C[C@H](CN2CCN(c3cc4c(cn3)CN[C@@H](C)C4)CC2)O1` (single isomer, unassigned) [Example 71], the IC50 turned out to be 0.024 µM.

Turning to `C[C@@H]1CN(c2ccc(C#N)c3nccnc23)C[C@H](CN2CCN(c3cc4c(cn3)C[C@H](C)NC4)CC2)O1` (single isomer, unassigned) [Example 81], the IC50 is 0.005 µM.

With `C[C@@H]1CN(c2ccc(C#N)c3ncccc23)C[C@H](CN2CCN(c3ccc(Cl)cc3)CC2)O1` [Example R2, 5-[(2S,6R)-2-[[4-(4-chlorophenyl)piperazin-1-yl]methyl]-6-methyl-morpholin-4-yl]quinoline-8-carbonitrile, reference compound], the IC50 was 0.21 µM.

In the case of `C[C@@H]1CN(c2ccc(C#N)c3ncccc23)C[C@H](CN2CCN(c3cnc4c(c3)CNCC4)C(C)(C)C2)O1` [Example 56, 5-[(2S,6R)-2-[[3,3-dimethyl-4-(5,6,7,8-tetrahydro-1,6-naphthyridin-3-yl)piperazin-1-yl]methyl]-6-methyl-morpholin-4-yl]quinoline-8-carbonitrile], the IC50 amounted to 0.012 µM.

Take `C[C@@H]1CN(c2ccc(C#N)c3ncccc23)C[C@H](CN2C[C@H]3CN(c4ccc5c(n4)CCNC5)CC[C@H]32)O1` (single isomer, unassigned) [Example 55]: the IC50 came out at 0.004 µM.

For `C[C@@H]1CN(c2ccc(C#N)c3ncccc23)C[C@H](CN2CCN(c3ccc4c(c3)CNC4)CC2CO)O1` (stereo partly drawn) [Example 15, 5-[(2S,6R)-2-[[2-(hydroxymethyl)-4-isoindolin-5-yl-piperazin-1-yl]methyl]-6-methyl-morpholin-4-yl]quinoline-8-carbonitrile], the IC50 turned out to be 0.073 µM.

For the compound `C[C@@H]1CN(c2ccc(C#N)c3ncccc23)C[C@H](CN2C[C@@H]3[C@@H](C2)OCCN3c2cnc3c(c2)CCNC3)O1` [Example 52, 5-[(2S,6R)-2-[[(4aR,7aR)-4-(5,6,7,8-tetrahydro-1,7-naphthyridin-3-yl)-2,3,4a,5,7,7a-hexahydropyrrolo[3,4-b][1,4]oxazin-6-yl]methyl]-6-methylmorpholin-4-yl]quinoline-8-carbonitrile], the IC50 is under 0.003 µM.

On to `C[C@@H]1CN(c2ccc(C#N)c3ncccc23)C[C@H](CN2CC3(C2)CN(c2cnc4c(n2)CCNC4)CCO3)O1` [Example 50, 5-[(2R,6S)-2-methyl-6-[[8-(5,6,7,8-tetrahydropyrido[3,4-b]pyrazin-2-yl)-5-oxa-2,8-diazaspiro [3.5]nonan-2-yl]methyl]morpholin-4-yl] quinoline-8-carbonitrile], for which the IC50 is 0.004 µM.

Regarding `C[C@@H]1CN(c2ccc(C#N)c3ncccc23)C[C@H](CN2CCN(c3ccc4c(n3)[C@@H](C)NC4)CC2)O1` (single isomer, unassigned) [Example 65], the IC50 amounted to 0.007 µM.

Turning to `C[C@@H]1CN(c2ccc(C#N)c3ncccc23)C[C@H](CN2CCN(c3ncc4c(n3)CNCC4)CC2)O1` [Example 12, 5-[(2R,6S)-2-methyl-6-[[4-(5,6,7,8-tetrahydropyrido[3,4-d]pyrimidin-2-yl)piperazin-1-yl]methyl]morpholin-4-yl]quinoline-8-carbonitrile], the IC50 was determined as 0.011 µM.

As for `C[C@@H]1CN(c2ccc(C#N)c3ncccc23)C[C@H](CN2CCN(c3ccc4c(c3)C(O)CNC4)CC2)O1` (stereo partly drawn) [Example 22, 5-[(2S,6R)-2-[[4-(4-hydroxy-1,2,3,4-tetrahydroisoquinolin-6-yl)piperazin-1-yl]methyl]-6-methyl-morpholin-4-yl]quinoline-8-carbonitrile], the IC50 is 0.039 µM.

Take `C[C@@H]1CN(c2ccc(C#N)c3ncccc23)C[C@H](CN2CCN(c3cc4c(cn3)CCN[C@@H]4C)CC2)O1` (single isomer, unassigned) [Example 74]: the IC50 amounted to 0.007 µM.

`C[C@@H]1CN(c2ccc(C#N)c3ncccc23)C[C@H](CN2CCN(c3cc4c(cn3)CNC4)CC2)O1` [Example 18, 5-[(2S,6R)-2-[[4-(2,3-dihydro-1H-pyrrolo[3,4-c]pyridin-6-yl)piperazin-1-yl]methyl]-6-methyl-morpholin-4-yl] quinoline-8-carbonitrile]: the IC50 was determined as 0.009 µM.

Turning to `C[C@@H]1CN(c2ccc(C#N)c3ncccc23)C[C@H](CN2CCN(c3ncc4c(n3)CNC4)CC2)O1` [Example 11, 5-[(2S,6R)-2-[[4-(6,7-dihydro-5Hpyrrolo[3,4-d]pyrimidin-2-yl)piperazin-1-yl]methyl]-6-methyl-morpholin-4-yl]quinoline-8-carbonitrile], the IC50 was determined as 0.011 µM.

Take `C[C@@H]1CN(c2ccc(C#N)c3ncccc23)C[C@H](CN2CCN(c3cnc4c(c3)CN[C@H]4C)CC2)O1` (single isomer, unassigned) [Example 67]: the IC50 turned out to be 0.013 µM.

With `C[C@@H]1CN(c2ccc(C#N)c3nccnc23)C[C@H](CN2CCN(c3cc4c(cn3)CN[C@@H](C)C4)CC2)O1` (single isomer, unassigned) [Example 84], the IC50 came out at 0.007 µM.

Turning to `COC1CNCc2ccc(N3CCN(C[C@H]4CN(c5ccc(C#N)c6ncccc56)C[C@@H](C)O4)CC3)cc21` (stereo partly drawn) [Example 58, 5-[(2S,6R)-2-[[4-(4-methoxy-1,2,3,4-tetrahydroisoquinolin-6-yl)piperazin-1-yl]methyl]-6-methyl-morpholin-4-yl]quinoline-8-carbonitrile], the IC50 worked out at 0.016 µM.
